Experimental findings from patent US20060099682A1, “Human vanilloid receptors and their uses” (Glaxo Group Limited, priority 1998, published 2006) are described below.

What all share (format): cell-based
For one test, the target named is T1, rat VR1 (Rattus norvegicus, UniProt O35433).
T1 construct: expressed in transfected cells
As to the kind of experiment: FLIPR calcium assay (fluo3-AM) with HEK293 cells stably expressing rat VR1.

The target of test [1] is T2, hVR1 (Homo sapiens, UniProt Q8NER1, M315I/T469I). As to the kind of experiment: Whole-cell patch clamp electrophysiology of human VR-1 channels transiently expressed in HEK293T cells. Also on record: pClN5-new (B) with the full length hVR1 gene cloned via NotI and EcoRI restriction sites; expressed in transfected cells; host or cells: HEK293T. How it is done: The activation of human VR-1 channels transiently expressed in HEK293T cells by capsaicin was investigated. Cells grown on poly-L-lysine-coated glass coverslips were placed in a recording chamber (0.5 ml) and superfused with extracellular solution (2 ml min^−1). The extracellular solution contained: NaCl (140 mM), KCl (5 mM), MgCl2 (2 mM), CaCl2 (2 mM), 4-(2-hydroxethyl)-1-piperazineethanesulphonic acid (HEPES, 10 mM) and glucose (10 mM). The pH was adjusted to 7.4 with NaOH and osmolarity ranged from 310-320 mOsm I^−1. Patch pipettes (borosilicate glass) were pulled using a Sutter P-97 electrode puller. The pipettes were filled with an internal solution consisting of: CsCl (140 mM), ethylene glycol-bis(β-aminoethyl ether) N,N,N′,N′-tetra acetic acid Cs salt (Cs-EGTA, 5 mM) and HEPES (10 mM). The pH was adjusted to 7.25 using CsOH and the osmolarity ranged from 275-290 mOsm. When filled with this internal solution, patch electrodes had resistances of 2-5 MΩ. Currents were recorded using standard whole-cell voltage clamp recording techniques (31) at room temperature (21-23° C.) using an Axopatch 200A amplifier and signals were sampled at 2 or 0.1 kHz. The majority of series resistance errors (80-85%) were minimized with compensation circuitry. Membrane potentials were not corrected for junction potentials (<4 mV). Voltage pulses and data collection were performed on-line using pClamp8 software (Axon Instruments) interfaced with amplifiers. Membrane potentials were maintained at −60 mV between protocols.
T2 sequence (Q8NER1 whole entry M315I/T469I, the tested form may be a part): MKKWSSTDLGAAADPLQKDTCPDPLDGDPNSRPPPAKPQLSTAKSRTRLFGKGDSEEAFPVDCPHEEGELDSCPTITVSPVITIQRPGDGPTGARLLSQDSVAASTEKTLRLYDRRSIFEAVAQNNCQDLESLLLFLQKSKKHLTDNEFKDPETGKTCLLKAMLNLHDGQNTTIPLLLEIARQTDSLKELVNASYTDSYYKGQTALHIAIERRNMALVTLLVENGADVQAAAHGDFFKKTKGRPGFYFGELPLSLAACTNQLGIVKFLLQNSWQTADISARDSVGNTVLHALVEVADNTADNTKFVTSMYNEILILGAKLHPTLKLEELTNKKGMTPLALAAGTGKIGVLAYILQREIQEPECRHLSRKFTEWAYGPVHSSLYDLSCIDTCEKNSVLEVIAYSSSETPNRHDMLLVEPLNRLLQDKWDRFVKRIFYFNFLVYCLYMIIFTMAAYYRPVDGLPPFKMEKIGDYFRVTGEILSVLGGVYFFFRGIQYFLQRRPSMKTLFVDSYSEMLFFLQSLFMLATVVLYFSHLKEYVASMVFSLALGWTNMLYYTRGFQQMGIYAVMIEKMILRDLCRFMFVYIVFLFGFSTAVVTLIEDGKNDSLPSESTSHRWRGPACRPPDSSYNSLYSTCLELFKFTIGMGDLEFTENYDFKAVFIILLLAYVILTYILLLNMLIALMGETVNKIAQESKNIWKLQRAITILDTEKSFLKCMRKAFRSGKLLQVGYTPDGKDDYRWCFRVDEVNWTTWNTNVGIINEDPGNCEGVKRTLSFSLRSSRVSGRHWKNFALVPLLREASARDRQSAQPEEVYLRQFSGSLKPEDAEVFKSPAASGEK
Capsaicin or capsazepine (CPZ) were applied, using a ‘fast-flow sytem’, directly onto the recording cell (<1 s to equilibrate). […]
Background: The patch-clamp technique gives a direct electrical read-out from membranes.

Test [2] addresses T2, hVR1. As to the kind of experiment: Calcium imaging (fura2-AM) with HEK293 cells expressing hVR1. The arrangement: pClN5-new (B) with the full length hVR1 gene cloned via NotI and EcoRI restriction sites; expressed in transfected cells; host or cells: HEK293. The following applies: 37° C.
Procedure: HEK293 cells expressing hVR1 transiently or stably, were plated onto poly-l-lysine coated cover slips at 1×10^5 cells per well. They were analysed on the following day by calcium imaging (QuantiCell 700, Applied Imaging). On the day of experiment, WASH buffer was prepared by adding CaCl2 to extracellular medium (ECM) to a final concentration of 2 mM, (ECM contains 125 mM NaCl, 5 mM KCl, 2 mM MgCl2, 0.5 mM NaH2PO4, 5 mM NaHCO3, 10 mM Hepes, 10 mM glucose, 0.1% BSA, pH7.4). The calcium sensitive dye solution was prepared by adding 50 μl 5% pluronic F-127 in DMSO (Molecular Probes) to a vial of fura2-AM (Molecular Probes). After mixing, 20 μl of the fura2-AM solution was added to 10 ml WASH. 1.5 ml was then added to cells, which were then incubated at 37° C. for 30 minutes. The plate was washed three times with WASH. 1 ml WASH was added and stored in dark. Agonists and antagonists were prepared in WASH at 5× their required assay concentrations. The reagents and assay temperature was kept at 37° C. For the transiently transfected cells, the YFP reporter DNA fluorescence (490 nm excitation) was used to identify the transfected cells. Cells were initially imaged in 400 μl WASH (or 300 μl WASH plus 100 μl antagonist e.g. capsazepine). After approximately 1 min, 100 μl agonist (e.g. capsaicin, anadamide or resiniferatoxin) at 5× the desired concentration was added to give final 1× concentration. […]
Setting [3] is: 1 μM CPZ against 1 μM capsaicin, holding potential −60 mV.

T1 sequence (O35433 whole entry): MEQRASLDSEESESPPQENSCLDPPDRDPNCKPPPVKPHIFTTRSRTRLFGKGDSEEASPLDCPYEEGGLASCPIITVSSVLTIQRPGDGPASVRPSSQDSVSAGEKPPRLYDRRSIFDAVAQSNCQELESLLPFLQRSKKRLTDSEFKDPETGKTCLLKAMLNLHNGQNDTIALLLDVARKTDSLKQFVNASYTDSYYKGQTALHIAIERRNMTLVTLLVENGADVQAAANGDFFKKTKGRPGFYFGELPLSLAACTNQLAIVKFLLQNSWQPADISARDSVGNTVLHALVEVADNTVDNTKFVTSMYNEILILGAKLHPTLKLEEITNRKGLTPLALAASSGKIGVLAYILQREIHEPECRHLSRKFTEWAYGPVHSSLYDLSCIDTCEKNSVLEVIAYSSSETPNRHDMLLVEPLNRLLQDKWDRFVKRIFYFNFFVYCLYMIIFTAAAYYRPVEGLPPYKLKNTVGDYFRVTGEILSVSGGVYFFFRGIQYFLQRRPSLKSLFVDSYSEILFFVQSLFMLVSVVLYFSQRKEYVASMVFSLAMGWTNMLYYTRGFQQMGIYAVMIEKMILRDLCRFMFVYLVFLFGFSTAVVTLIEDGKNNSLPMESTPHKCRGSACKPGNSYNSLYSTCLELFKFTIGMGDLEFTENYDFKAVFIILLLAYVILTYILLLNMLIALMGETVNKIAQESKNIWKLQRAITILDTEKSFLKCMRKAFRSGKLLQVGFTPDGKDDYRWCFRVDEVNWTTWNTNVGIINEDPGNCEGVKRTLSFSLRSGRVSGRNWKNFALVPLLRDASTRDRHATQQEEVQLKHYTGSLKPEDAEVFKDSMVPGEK
Procedure for rat VR1: Intracellular calcium is monitored with the calcium sensitive dye, fluo3-AM. HEK293 cells stably expressing rat VR1 were plated into a 96 well, poly-l-lysine treated FLIPR plate at 3×10^4 cells per well. On the following day, the plate was processed for FLIPR. FBP buffer was prepared (15 μM Probenecid (calcium ATPase pump blocker) in 1× FLIPR buffer (145 mM NaCl, 5 mM KCl, 1 mM MgCl2, 2 mM CaCl2, 10 mM glucose, 20 mM Hepes). FBP buffer pH was then adjusted to 7.4 with NaOH. 400 μl DMSO was added to a vial of fluo3-AM (Cambridge Bioscience, F-1241). The fluo3-AM solution was incubated at 37° C. for 10 min and vortexed. LOAD was prepared by adding 20 μl of fluo3-AM solution and 20 μl 20% pleuronic F-127 in DMSO (Cambridge Bioscience, P-3000) into 10 ml FBP. The 96 well plate containing cells was flicked off to remove cell medium. 100 μl LOAD was added per well. Cells were then incubated at 37° C. for 60 minutes. Capsaicin (a rVR1 agonist) and capsazepine (CPZ, a rVR1 antagonist) were prepared at 10× the desired final assay concentrations in FBP. The plate was flicked to remove LOAD from cells, and 180 μl FBP was added per well. […] Cells were monitored for 70 seconds after agonist addition. The FLIPR traces (fluorescence change (counts) versus time (seconds)) were produced for each well. […] The plate was incubated for 15 minutes at room temperature prior reading in the FLIPR.

For the compound `Oc1cc2c(cc1O)CN(C(=S)NCCc1ccc(Cl)cc1)CCC2` [CPZ, capsazepine], the “antagonism of the capsaicin VR1 response (FLIPR peak heights)” value at rat VR1 (cells pre-incubated in CPZ 15 minutes at room temperature) is “peak heights are reduced”. Further, at hVR1 [1] (setting [3]), the “blockade of capsaicin-evoked inward current” value was “abolished” and the reversibility of blockade result is “partially reversible”. Also, the “blockade of capsaicin-evoked current in voltage ramps” value on hVR1 [1] (1 μM CPZ against 1 μM capsaicin, voltage ramps −100 to +70 mV) is “completely blocked the current”. The “recovery after blockade in voltage ramps” value on hVR1 [1] (1 μM CPZ, especially inward currents evoked by negative potentials) is listed as “only partial recovery was observed”.
On to `COc1cc(CNC(=O)CCCC/C=C/C(C)C)ccc1O` [capsaicin], for which the “calcium influx response after addition of agonist” value at hVR1 [2] is on record as “stimulated to influx calcium”. For the same compound, at rat VR1 (HEK293 stably expressing rVR1, monitored 70 seconds after addition), the “FLIPR trace after agonist addition (fluorescence change)” value is given as “Peaks indicate capsaicin-gated calcium influx”. Moreover, the current-voltage relationship result at hVR1 [1] (1 μM capsaicin, voltage ramps −100 to +70 mV) is “substantial outward rectification”. For the same compound, at hVR1 [1] (capsaicin 1 μM added at 2 min intervals for about 40 s, 2 mM external calcium, current at +65 mV), the “reduction of current by the 6th addition (desensitisation, rundown)” value is “about 4 fold”. For the same compound, at hVR1 [1] (capsaicin 1 μM, external calcium replaced with 5 mM EGTA), the “size of capsaicin-evoked current when external calcium replaced” value was “increased dramatically”. The “current evoked by application of capsaicin” value on hVR1 [1] (capsaicin 1 μM, membrane held at −60 mV, HEK293T transiently expressing human VR1) is reported as “produces an inward current”.
